Key:
Settings in all cases: compound at 10 μM
[1] = target: T1, Human opioid (ORL1) (Homo sapiens, UniProt P41146); experiment: Radioligand binding, human opioid ORL1 membranes, FlashPlate, [125I]-Nociceptin
T1 construct: purchased Perkin Elmer Biosignal
Summary of the method: (§1)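 Cloned human receptor membranes were coated onto FlashPlate wells and incubated with radioligand and compound (added from a 0.5 mM DMSO daughter plate) for 1 hour at room temperature in the dark. Scintillation counting gave percent inhibition, with DMSO defining total and reference ligand defining non-specific binding.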

[2] = target: T2, Human Melanocortin (MC3) (Homo sapiens, UniProt P41968); experiment: Radioligand binding, human melanocortin MC3 membranes, FlashPlate, [125I]-NDP-αMSH
T2 construct: purchased Perkin Elmer Biosignal
T2 sequence (P41968 whole entry): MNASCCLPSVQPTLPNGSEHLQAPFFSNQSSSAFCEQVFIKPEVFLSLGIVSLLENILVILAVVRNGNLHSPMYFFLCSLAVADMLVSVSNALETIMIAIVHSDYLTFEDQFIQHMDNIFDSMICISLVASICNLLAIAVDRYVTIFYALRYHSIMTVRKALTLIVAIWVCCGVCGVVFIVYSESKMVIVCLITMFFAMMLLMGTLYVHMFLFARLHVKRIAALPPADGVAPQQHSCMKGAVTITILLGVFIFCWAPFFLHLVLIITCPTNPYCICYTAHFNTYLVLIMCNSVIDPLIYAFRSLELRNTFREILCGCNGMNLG
Summary of the method: as §1

[3] = target: T3, Human melanin-concentrating hormone (MCH1) (Homo sapiens, UniProt Q99705); experiment: Radioligand binding, human melanin-concentrating hormone MCH1 membranes, FlashPlate, [125I]-S36057
T3 construct: purchased Perkin Elmer Biosignal
T3 sequence (Q99705 whole entry): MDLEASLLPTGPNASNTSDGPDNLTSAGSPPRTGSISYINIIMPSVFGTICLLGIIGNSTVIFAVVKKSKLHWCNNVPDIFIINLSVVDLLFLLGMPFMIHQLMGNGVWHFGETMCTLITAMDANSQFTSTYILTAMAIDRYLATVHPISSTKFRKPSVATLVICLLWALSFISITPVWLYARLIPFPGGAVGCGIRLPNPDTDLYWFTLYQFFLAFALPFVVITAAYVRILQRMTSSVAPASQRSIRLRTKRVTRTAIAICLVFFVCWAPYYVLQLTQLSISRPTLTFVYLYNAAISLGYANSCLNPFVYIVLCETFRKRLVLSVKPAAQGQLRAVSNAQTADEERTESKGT
Summary of the method: as §1

[4] = target: T4, Human κ-Opioid (KOP) (Homo sapiens, UniProt P41145); experiment: Radioligand binding, human κ-opioid (KOP) membranes, filtration, [3H]-Diprenorphine
T4 construct: purchased Perkin Elmer Biosignal
T4 sequence (P41145 whole entry): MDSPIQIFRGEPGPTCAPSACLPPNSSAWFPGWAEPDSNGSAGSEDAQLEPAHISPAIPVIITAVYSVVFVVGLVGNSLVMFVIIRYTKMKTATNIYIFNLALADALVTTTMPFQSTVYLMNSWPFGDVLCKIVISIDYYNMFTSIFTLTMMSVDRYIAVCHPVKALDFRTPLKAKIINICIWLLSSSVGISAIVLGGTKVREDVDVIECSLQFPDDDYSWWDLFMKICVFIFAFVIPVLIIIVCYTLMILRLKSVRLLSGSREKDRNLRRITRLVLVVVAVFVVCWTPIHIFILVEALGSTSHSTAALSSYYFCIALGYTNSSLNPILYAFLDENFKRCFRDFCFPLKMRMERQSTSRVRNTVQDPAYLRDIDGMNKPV
Summary of the method: (§2)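 Filtration binding on cloned human receptor membranes (1 Unit/well), [125I]-Substance P for NK1 and [3H]-Diprenorphine for KOP, 1 h at room temperature. Filters PEI-presoaked, washed with cold 50 mM Tris-HCl pH 7.4, counted by scintillation; percent inhibition calculated, reference ligand defining non-specific binding.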

[5] = target: T5, Human δ-opioid (DOP) (Homo sapiens, UniProt P41143); experiment: Radioligand binding, human δ-opioid (DOP) membranes, FlashPlate, [3H]-Bremazocine
T5 construct: purchased Perkin Elmer Biosignal
T5 sequence (P41143 whole entry): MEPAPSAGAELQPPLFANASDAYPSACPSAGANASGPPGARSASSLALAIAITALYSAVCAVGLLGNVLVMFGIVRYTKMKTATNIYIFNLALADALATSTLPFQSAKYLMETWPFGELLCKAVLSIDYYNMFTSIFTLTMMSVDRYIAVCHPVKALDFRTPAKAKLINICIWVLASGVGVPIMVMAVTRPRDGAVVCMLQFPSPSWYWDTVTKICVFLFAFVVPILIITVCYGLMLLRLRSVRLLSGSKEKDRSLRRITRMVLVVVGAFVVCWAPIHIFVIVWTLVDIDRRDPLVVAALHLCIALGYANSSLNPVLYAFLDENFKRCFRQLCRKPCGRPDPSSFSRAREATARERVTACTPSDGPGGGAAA
Summary of the method: as §1

[6] = target: T6, Mouse urotensin (mUR2) (Mus musculus, UniProt Q8VIH9); experiment: Radioligand binding, mouse urotensin mUR2 membranes, FlashPlate, [125I]-Urotensin II
T6 construct: purchased Perkin Elmer Biosignal
T6 sequence (Q8VIH9 1-385): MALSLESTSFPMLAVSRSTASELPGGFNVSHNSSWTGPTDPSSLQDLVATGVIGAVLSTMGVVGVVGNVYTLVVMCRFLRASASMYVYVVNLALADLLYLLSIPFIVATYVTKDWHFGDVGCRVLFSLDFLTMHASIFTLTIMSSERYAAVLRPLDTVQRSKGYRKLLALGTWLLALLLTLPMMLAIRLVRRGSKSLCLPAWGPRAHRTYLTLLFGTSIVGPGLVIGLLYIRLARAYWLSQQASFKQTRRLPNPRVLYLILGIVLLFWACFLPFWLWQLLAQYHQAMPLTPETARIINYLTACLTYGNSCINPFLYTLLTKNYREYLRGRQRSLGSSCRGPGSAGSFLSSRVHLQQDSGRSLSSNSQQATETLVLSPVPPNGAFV
Summary of the method: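 Cloned mouse urotensin (mUR2) receptor membranes from Perkin Elmer Biosignal were immobilized in FlashPlate microplates using a proprietary coating. Each well got 19.5 μl buffer, then 0.5 μl of DMSO, reference ligand, or compound. Adding 5 μl of [125I]-Urotensin II, diluted to 5× final concentration in binding buffer, started binding. Plates were sealed with TopSeal-A and incubated 1 hour at room temperature in the dark. Wells were counted for 30 seconds each on a TopCount after a 60-second delay, and percentage inhibition was calculated.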

[7] = target: T7, Human Melanocortin (MC4) (Homo sapiens, UniProt P32245); experiment: Radioligand binding, human melanocortin MC4 membranes, FlashPlate, [125I]-NDP-αMSH
T7 construct: purchased Perkin Elmer Biosignal
T7 sequence (P32245 whole entry): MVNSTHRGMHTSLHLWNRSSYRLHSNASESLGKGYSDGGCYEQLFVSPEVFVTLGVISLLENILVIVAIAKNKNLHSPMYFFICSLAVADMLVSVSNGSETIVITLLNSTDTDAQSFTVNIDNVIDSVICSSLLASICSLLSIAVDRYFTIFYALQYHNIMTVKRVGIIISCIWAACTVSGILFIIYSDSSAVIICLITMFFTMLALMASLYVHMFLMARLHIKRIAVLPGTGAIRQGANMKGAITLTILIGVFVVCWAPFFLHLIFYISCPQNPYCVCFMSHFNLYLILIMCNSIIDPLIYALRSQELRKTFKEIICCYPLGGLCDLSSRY
Summary of the method: as §1

[8] = target: T8, Human μ-opioid (MOP) (Homo sapiens, UniProt P35372); experiment: Radioligand binding, human μ-opioid (MOP) membranes, FlashPlate, [3H]-Naloxone
T8 construct: purchased Perkin Elmer Biosignal
T8 sequence (P35372 whole entry): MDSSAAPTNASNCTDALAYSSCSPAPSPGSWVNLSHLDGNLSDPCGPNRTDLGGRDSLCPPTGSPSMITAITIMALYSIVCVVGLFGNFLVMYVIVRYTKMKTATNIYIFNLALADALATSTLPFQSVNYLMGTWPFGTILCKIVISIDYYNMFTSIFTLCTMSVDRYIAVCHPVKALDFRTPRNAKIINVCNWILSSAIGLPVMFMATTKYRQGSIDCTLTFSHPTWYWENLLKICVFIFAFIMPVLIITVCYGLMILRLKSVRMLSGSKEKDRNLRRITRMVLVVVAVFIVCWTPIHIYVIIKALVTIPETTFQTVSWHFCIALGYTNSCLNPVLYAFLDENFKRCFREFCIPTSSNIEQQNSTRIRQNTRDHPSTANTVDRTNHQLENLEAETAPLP
Summary of the method: as §1

[9] = target: T9, Human neurokinin (NK1) (Homo sapiens, UniProt P25103); experiment: Radioligand binding, human neurokinin NK1 membranes, filtration, [125I]-Substance P
T9 construct: purchased Perkin Elmer Biosignal
T9 sequence (P25103 whole entry): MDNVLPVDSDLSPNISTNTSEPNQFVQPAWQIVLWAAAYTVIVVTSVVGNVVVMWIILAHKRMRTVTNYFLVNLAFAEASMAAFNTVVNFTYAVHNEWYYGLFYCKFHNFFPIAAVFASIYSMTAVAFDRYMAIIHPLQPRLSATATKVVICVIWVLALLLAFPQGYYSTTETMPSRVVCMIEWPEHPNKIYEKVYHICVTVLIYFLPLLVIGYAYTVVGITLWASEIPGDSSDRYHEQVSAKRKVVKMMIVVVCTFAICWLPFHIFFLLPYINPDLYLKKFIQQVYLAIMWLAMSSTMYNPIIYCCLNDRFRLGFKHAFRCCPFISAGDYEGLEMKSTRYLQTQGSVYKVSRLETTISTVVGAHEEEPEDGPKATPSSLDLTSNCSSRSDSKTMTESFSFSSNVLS
Summary of the method: as §2

[10] = target: T10, Human neuropeptide Y (NPY-Y1) (Homo sapiens, UniProt P25929); experiment: Radioligand binding, human neuropeptide Y NPY-Y1 membranes, FlashPlate, [125I]-PYY
T10 construct: purchased Perkin Elmer Biosignal
T10 sequence (P25929 1-384): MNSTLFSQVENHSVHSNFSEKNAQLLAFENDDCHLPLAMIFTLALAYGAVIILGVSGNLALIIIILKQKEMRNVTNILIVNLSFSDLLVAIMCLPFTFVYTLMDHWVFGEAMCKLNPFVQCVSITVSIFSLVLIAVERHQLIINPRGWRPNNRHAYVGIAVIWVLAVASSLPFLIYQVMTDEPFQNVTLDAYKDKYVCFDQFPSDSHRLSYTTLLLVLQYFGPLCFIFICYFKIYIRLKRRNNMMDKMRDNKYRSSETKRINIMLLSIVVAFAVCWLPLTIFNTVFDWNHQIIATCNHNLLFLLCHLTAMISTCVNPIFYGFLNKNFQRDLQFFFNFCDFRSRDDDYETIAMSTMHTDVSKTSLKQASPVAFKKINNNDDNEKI
Summary of the method: as §1

[11] = target: T11, Human melanocortin (MC5) (Homo sapiens, UniProt P33032); experiment: Radioligand binding, human melanocortin MC5 membranes, FlashPlate, [125I]-NDP-αMSH
T11 construct: purchased Perkin Elmer Biosignal
T11 sequence (P33032 whole entry): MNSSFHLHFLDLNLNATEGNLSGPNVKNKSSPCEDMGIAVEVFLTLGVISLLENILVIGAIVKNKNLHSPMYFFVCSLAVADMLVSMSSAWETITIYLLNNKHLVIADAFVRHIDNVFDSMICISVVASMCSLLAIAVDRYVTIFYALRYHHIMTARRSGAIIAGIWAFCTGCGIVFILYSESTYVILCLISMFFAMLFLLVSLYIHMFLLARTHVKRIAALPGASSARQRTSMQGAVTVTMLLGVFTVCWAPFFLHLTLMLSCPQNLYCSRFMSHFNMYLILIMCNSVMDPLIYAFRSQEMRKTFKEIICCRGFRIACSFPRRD
Summary of the method: as §1

T1 sequence (P41146 whole entry): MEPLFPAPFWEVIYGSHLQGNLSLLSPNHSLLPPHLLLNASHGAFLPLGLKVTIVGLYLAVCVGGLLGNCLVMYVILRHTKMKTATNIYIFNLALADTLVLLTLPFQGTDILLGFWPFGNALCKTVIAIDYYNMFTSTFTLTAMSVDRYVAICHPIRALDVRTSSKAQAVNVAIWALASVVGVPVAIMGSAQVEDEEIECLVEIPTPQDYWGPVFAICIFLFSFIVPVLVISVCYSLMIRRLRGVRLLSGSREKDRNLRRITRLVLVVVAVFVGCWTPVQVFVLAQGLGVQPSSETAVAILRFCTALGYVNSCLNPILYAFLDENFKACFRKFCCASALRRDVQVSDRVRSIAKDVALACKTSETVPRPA

Structure (SMILES)	A10 radioligand binding, percentage inhibition ([1]; [125I]-Nociceptin)	A3 radioligand binding, percentage inhibition ([2]; [125I]-NDP-αMSH)	A6 radioligand binding, percentage inhibition ([3]; [125I]-S36057)	A2 radioligand binding, percentage inhibition ([4]; [3H]-Diprenorphine)	A1 radioligand binding, percentage inhibition ([5]; [3H]-Bremazocine)	A11 radioligand binding, percentage inhibition ([6]; [125I]-Urotensin II)	A4 radioligand binding, percentage inhibition ([7]; [125I]-NDP-αMSH)	A7 radioligand binding, percentage inhibition ([8]; [3H]-Naloxone)	A8 radioligand binding, percentage inhibition ([9]; [125I]-Substance P)	A9 radioligand binding, percentage inhibition ([10]; [125I]-PYY)	A5 radioligand binding, percentage inhibition ([11]; [125I]-NDP-αMSH)	further results
CO[C@H]1[C@H](O)[C@@H](COCc2ccc(-c3ccccc3)cc2)OC(OCCc2ccccc2)[C@@H]1NC(=O)CNC(=N)N (stereo partly shown) [compound 109]	− (“−” indicates less than 50% inhibition at 10 μM)	+ (“+” indicates greater than 50% inhibition at 10 μM)	− (“−” indicates less than 50% inhibition at 10 μM)	− (“−” indicates less than 50% inhibition at 10 μM)	− (“−” indicates less than 50% inhibition at 10 μM)	− (“−” indicates less than 50% inhibition at 10 μM)	+ (“+” indicates greater than 50% inhibition at 10 μM)	− (“−” indicates less than 50% inhibition at 10 μM)	− (“−” indicates less than 50% inhibition at 10 μM)	− (“−” indicates less than 50% inhibition at 10 μM)	+ (“+” indicates greater than 50% inhibition at 10 μM)	–
CO[C@H]1[C@H](O)[C@@H](COCc2ccc3ccccc3c2)OC(OCCNC(=N)N)[C@@H]1NC(=O)c1ccccc1 (stereo partly shown) [compound 124]	− (“−” indicates less than 50% inhibition at 10 μM)	− (“−” indicates less than 50% inhibition at 10 μM)	− (“−” indicates less than 50% inhibition at 10 μM)	− (“−” indicates less than 50% inhibition at 10 μM)	− (“−” indicates less than 50% inhibition at 10 μM)	− (“−” indicates less than 50% inhibition at 10 μM)	− (“−” indicates less than 50% inhibition at 10 μM)	− (“−” indicates less than 50% inhibition at 10 μM)	+ (“+” indicates greater than 50% inhibition at 10 μM)	− (“−” indicates less than 50% inhibition at 10 μM)	+ (“+” indicates greater than 50% inhibition at 10 μM)	–
CSC1OC(COCc2ccc(Cl)cc2)C(O)C(OCc2cccc(N)c2)C1NC(=O)c1c[nH]c2ccccc12 (stereo not shown) [compound 323]	–	–	–	–	–	–	–	–	–	–	–	A10: inhibition of radioligand binding, human opioid (ORL1) ([1]; [125I]-Nociceptin): − (“−” indicates less than 50% inhibition at 10 μM); A3: inhibition of radioligand binding, human melanocortin (MC3) ([2]; [125I]-NDP-αMSH): − (“−” indicates less than 50% inhibition at 10 μM); A6: inhibition of radioligand binding, human melanin-concentrating hormone (MCH1) ([3]; [125I]-S36057): − (“−” indicates less than 50% inhibition at 10 μM); A2: inhibition of radioligand binding, human κ-opioid (KOP) ([4]; [3H]-Diprenorphine): − (“−” indicates less than 50% inhibition at 10 μM); A1: inhibition of radioligand binding, human δ-opioid (DOP) ([5]; [3H]-Bremazocine): − (“−” indicates less than 50% inhibition at 10 μM); A11: inhibition of radioligand binding, mouse urotensin (mUR2) ([6]; [125I]-Urotensin II): − (“−” indicates less than 50% inhibition at 10 μM); A4: inhibition of radioligand binding, human melanocortin (MC4) ([7]; [125I]-NDP-αMSH): − (“−” indicates less than 50% inhibition at 10 μM); A7: inhibition of radioligand binding, human μ-opioid (MOP) ([8]; [3H]-Naloxone): − (“−” indicates less than 50% inhibition at 10 μM); A8: inhibition of radioligand binding, human neurokinin (NK1) ([9]; [125I]-Substance P): + (“+” indicates greater than 50% inhibition at 10 μM); A9: inhibition of radioligand binding, human neuropeptide Y (NPY-Y1) ([10]; [125I]-PYY): − (“−” indicates less than 50% inhibition at 10 μM); A5: inhibition of radioligand binding, human melanocortin (MC5) ([11]; [125I]-NDP-αMSH): − (“−” indicates less than 50% inhibition at 10 μM)
CO[C@H]1[C@H](O)[C@@H](COCc2ccc3ccccc3c2)OC(OCc2cccc(O)c2)[C@@H]1NC(=O)CCCNC(=N)N (stereo partly shown) [compound 168]	− (“−” indicates less than 50% inhibition at 10 μM)	− (“−” indicates less than 50% inhibition at 10 μM)	− (“−” indicates less than 50% inhibition at 10 μM)	− (“−” indicates less than 50% inhibition at 10 μM)	− (“−” indicates less than 50% inhibition at 10 μM)	− (“−” indicates less than 50% inhibition at 10 μM)	− (“−” indicates less than 50% inhibition at 10 μM)	+ (“+” indicates greater than 50% inhibition at 10 μM)	+ (“+” indicates greater than 50% inhibition at 10 μM)	− (“−” indicates less than 50% inhibition at 10 μM)	− (“−” indicates less than 50% inhibition at 10 μM)	–
COC[C@H]1OC(OCc2ccc3ccccc3c2)[C@H](NC(=O)CNC(=N)N)[C@@H](OCc2ccc(Cl)cc2)[C@@H]1O (stereo partly shown) [compound 22]	–	–	–	–	–	–	–	–	–	–	–	A10 radioligand binding inhibition ([1]; human ORL1 membranes): − (“−” indicates less than 50% inhibition at 10 μM); A3 radioligand binding inhibition ([2]; human melanocortin MC3 membranes): − (“−” indicates less than 50% inhibition at 10 μM); A6 radioligand binding inhibition ([3]; human MCH1 membranes): − (“−” indicates less than 50% inhibition at 10 μM); A2 radioligand binding inhibition ([4]; human κ-opioid (KOP) membranes): − (“−” indicates less than 50% inhibition at 10 μM); A1 radioligand binding inhibition ([5]; human δ-opioid (DOP) membranes): − (“−” indicates less than 50% inhibition at 10 μM); A11 radioligand binding inhibition ([6]; mouse urotensin mUR2 membranes): − (“−” indicates less than 50% inhibition at 10 μM); A4 radioligand binding inhibition ([7]; human melanocortin MC4 membranes): − (“−” indicates less than 50% inhibition at 10 μM); A7 radioligand binding inhibition ([8]; human μ-opioid (MOP) membranes): − (“−” indicates less than 50% inhibition at 10 μM); A8 radioligand binding inhibition ([9]; human neurokinin NK1 membranes): − (“−” indicates less than 50% inhibition at 10 μM); A9 radioligand binding inhibition ([10]; human NPY-Y1 membranes): − (“−” indicates less than 50% inhibition at 10 μM); A5 radioligand binding inhibition ([11]; human melanocortin MC5 membranes): + (“+” indicates greater than 50% inhibition at 10 μM)
